What all share (assay type): cell-based
Assay [1] has as its system KRas-mediated Phosphorylation of ERK in A549 cells. Briefly: Cisbio HTRF pERK assay, A549 cells. The following applies: for IC50: A549 cells, 3 hrs compound, read-out: Inhibition (HTRF IC50 nM) of KRas-mediated Phosphorylation of ERK, A549; for inhibition at 0.1 µM: Homo sapiens, A549, A549 cells, single point at 100 nM. In general terms: In TR-FRET formats the signal depends on donor and acceptor labels being close together.

The test system of assay [2] is KRas-mediated Phosphorylation of ERK in H727 cells. Briefly: Cisbio HTRF pERK assay, H727 cells. The following applies: for IC50: 3 hrs compound, read-out: Inhibition (HTRF IC50 nM) of KRas-mediated Phosphorylation of ERK, H727; for inhibition at 0.1 µM: Homo sapiens, NCI-H727, single point at 100 nM.
The subject of assay [3] is KRas-mediated Phosphorylation of ERK in AsPC-1 cells. The assay can be described thus: Cisbio HTRF pERK assay, AsPC-1 cells. The settings on record: for IC50: 3 hrs compound, read-out: Inhibition (HTRF IC50 nM) of KRas-mediated Phosphorylation of ERK, AsPC-1; for inhibition at 0.1 µM: Homo sapiens, ASPC1, single point at 100 nM.
For assay [4], the system named is KRas-mediated Phosphorylation of ERK in H358 cells. The assay can be described thus: Cisbio HTRF pERK assay, H358 cells. The settings on record: for IC50: H358 cells, 3 hrs compound, read-out: Inhibition (HTRF IC50 nM) of KRas-mediated Phosphorylation of ERK, H358; for inhibition at 0.1 µM: Homo sapiens, NCI-H358, H358 cells, single point at 100 nM.
The subject of assay [5] is KRas-mediated Phosphorylation of ERK in HCT116 cells. The assay can be described thus: Cisbio HTRF pERK assay, HCT116 cells. The following applies: Homo sapiens, HCT-116, HCT116 cells, single point at 100 nM.
Assay [6] relates to KRas-mediated Phosphorylation of ERK in H460 cells. Briefly: Cisbio HTRF pERK assay, H460 cells. The settings on record: Homo sapiens, NCI-H460, H460 cells, single point at 100 nM.

The IC50 is the concentration at which inhibition is half-maximal. As to `N#Cc1c(N)sc2c(F)ccc(-c3c(Cl)cc4c(N5CCCn6nnc(Cl)c6C5)nc(OC[C@@]56CCCN5C[C@H](F)C6)nc4c3F)c12` (single isomer, unassigned) [Example 196], the half-maximal inhibitory concentration (IC50) was 2420 nM in assay [1], 2820 nM in assay [2], 531 nM in assay [3] and 472 nM in assay [4].
The inhibition is the relative decrease from the control value, in per cent. As for `CCc1c(F)ccc2cc(O)cc(-c3ccc4c(N5CCCn6nc(C(=O)N(C)C)c(C)c6C5)nc(OC[C@@]56CCCN5C[C@H](F)C6)nc4c3F)c12` [Example 75, 5-(7-(8-ethyl-7-fluoro-3-hydroxynaphthalen-1-yl)-8-fluoro-2-(((2R,7aS)-2-fluorohexahydro-1H-pyrrolizin-7a-yl)methoxy)quinazolin-4-yl)-N,N,3-trimethyl-5,6,7,8-tetrahydro-4H-pyrazolo[1,5-a][1,4]diazepine-2-carboxamide], the inhibition at 0.1 µM in assay [1] was found to be 79%; in assay [5] it was 29%; in assay [2] it was 73%; in assay [3], 95%; in assay [4] it was 98%.
On the same counts, the results for `CCc1c(F)ccc2cc(O)cc(-c3ccc4c(N5CCCn6nc(C(=O)N(C)C)c(Cl)c6C5)nc(OC[C@@]56CCCN5C[C@H](F)C6)nc4c3F)c12` [Example 74, 3-chloro-5-(7-(8-ethyl-7-fluoro-3-hydroxynaphthalen-1-yl)-8-fluoro-2-(((2R,7aS)-2-fluorohexahydro-1H-pyrrolizin-7a-yl)methoxy)quinazolin-4-yl)-N,N-dimethyl-5,6,7,8-tetrahydro-4H-pyrazolo[1,5-a][1,4]diazepine-2-carboxamide] are 72%, 38%, 78%, 99% and 98%.
`CCc1c(F)ccc2cc(O)cc(C3Cc4nc(OC[C@@]56CCCN5C[C@H](F)C6)nc(N5C[C@@H]6C[C@H](C5)[C@H](O)C6)c4CO3)c12` (stereo partly drawn) [Example 86, (1R,5R,6R)-3-(7-(8-ethyl-7-fluoro-3-hydroxynaphthalen-1-yl)-2-(((2R,7aS)-2-fluorotetrahydro-1H-pyrrolizin-7a(5H)-yl)methoxy)-7,8-dihydro-5H-pyrano[4,3-d]pyrimidin-4-yl)-3-azabicyclo[3.2.1]octan-6-ol]: the inhibition at 0.1 µM in assay [1] was 0%; in assay [5], -12%; in assay [6], -1%; in assay [4], -14%.
As for `CCc1c(F)ccc2cc(O)cc(-c3c(F)cc4c(N5CCCC6(CCO6)C5)nc(OC[C@@]56CCCN5C[C@H](F)C6)nc4c3F)c12` (stereo partly drawn) [Example 77, 4-(6,8-difluoro-2-(((2R,7aS)-2-fluorotetrahydro-1H-pyrrolizin-7a(5H)-yl)methoxy)-4-(1-oxa-6-azaspiro[3.5]nonan-6-yl)quinazolin-7-yl)-5-ethyl-6-fluoronaphthalen-2-ol], the inhibition at 0.1 µM was 82% in assay [1]; 45% in assay [5]; 66% in assay [2]; 87% in assay [3]; 86% in assay [6]; 96% in assay [4].
Regarding `CCc1c(F)ccc2cc(O)cc(-c3c(F)cc4c(N5CCCn6nc(C(=O)N7CCOCC7)c(Cl)c6C5)nc(OC[C@@]56CCCN5C[C@H](F)C6)nc4c3F)c12` [Example 79, (3-chloro-5-(7-(8-ethyl-7-fluoro-3-hydroxynaphthalen-1-yl)-6,8-difluoro-2-(((2R,7aS)-2-fluorohexahydro-1H-pyrrolizin-7a-yl)methoxy)quinazolin-4-yl)-5,6,7,8-tetrahydro-4H-pyrazolo[1,5-a][1,4]diazepin-2-yl)(morpholino)methanone], the inhibition at 0.1 µM in assay [1] amounted to 60%; in assay [5], 64%; in assay [6], 85%; in assay [4], 95%.
With `C[C@@]1(O)COCCN(c2nc(OC[C@@]34CCCN3C[C@H](F)C4)nc3c(F)c(-c4ccc(F)c5sc(N)c(C#N)c45)c(Cl)cc23)C1` (atropisomer, axis not shown; (aS)) [Example 193, 2-amino-4-((S)-6-chloro-8-fluoro-2-(((2R,7aS)-2-fluorotetrahydro-1H-pyrrolizin-7a(5H)-yl)methoxy)-4-((S)-6-hydroxy-6-methyl-1,4-oxazepan-4-yl)quinazolin-7-yl)-7-fluorobenzo[b]thiophene-3-carbonitrile], the IC50 in assay [2] was 686 nM; in assay [3], 414 nM.
On to `N#Cc1c(N)sc2c(F)ccc(-c3c(Cl)cc4c(N5CCCn6nnc(Cl)c6C5)nc(OC[C@@]56CCCN5C[C@H](F)C6)nc4c3F)c12` (single isomer, unassigned) [Example 197], for which the IC50 was found to be 10 nM in assay [1], 12 nM in assay [2], 2 nM in assay [3] and 3 nM in assay [4].
In the case of `CCc1c(F)ccc2cc(O)cc(C3Cc4nc(OC[C@@]56CCCN5C[C@H](F)C6)nc(N5CCCC6(C5)NC(=O)NC6=O)c4CO3)c12` (stereo partly drawn) [Example 87, 7-(7-(8-ethyl-7-fluoro-3-hydroxynaphthalen-1-yl)-2-(((2R,7aS)-2-fluorotetrahydro-1H-pyrrolizin-7a(5H)-yl)methoxy)-7,8-dihydro-5H-pyrano[4,3-d]pyrimidin-4-yl)-1,3,7-triazaspiro[4.5]decane-2,4-dione], the inhibition at 0.1 µM in assay [1] was 16%; in assay [5] it was -5%; in assay [6], -8%; in assay [4] it was 30%.
As to `CCc1c(F)ccc2cc(O)cc(-c3ccc4c(N5CCCn6nc(C(=O)N7CCOCC7)c(Cl)c6C5)nc(OC[C@@]56CCCN5C[C@H](F)C6)nc4c3F)c12` [Example 73, (3-chloro-5-(7-(8-ethyl-7-fluoro-3-hydroxynaphthalen-1-yl)-8-fluoro-2-(((2R,7aS)-2-fluorohexahydro-1H-pyrrolizin-7a-yl)methoxy)quinazolin-4-yl)-5,6,7,8-tetrahydro-4H-pyrazolo[1,5-a][1,4]diazepin-2-yl)(morpholino)methanone], the inhibition at 0.1 µM in assay [1] was determined as 71%; in assay [5] it was 48%; in assay [2] it was 71%; in assay [3], 97%; in assay [4] it was 97%.
Regarding `CCc1c(F)ccc2cc(O)cc(-c3c(F)cc4c(N5CCC[C@@](C)(O)C5)nc(OCC5(CN(C)C)CC5)nc4c3F)c12` [Example 11, (R)-1-(2-((1-((dimethylamino)methyl)cyclopropyl)methoxy)-7-((R)-8-ethyl-7-fluoro-3-hydroxynaphthalen-1-yl)-6,8-difluoroquinazolin-4-yl)-3-methylpiperidin-3-ol], the inhibition at 0.1 µM in assay [2] was determined as 49%; in assay [3], 91%.
For `CCc1c(F)ccc2cc(O)cc(-c3c(F)cc4c(N5CCOCC(C)(O)C5)nc(OCC5(CN(C)C)CC5)nc4c3F)c12` (stereo not drawn) [Example 56, 4-(2-((1-((dimethylamino)methyl)cyclopropyl)methoxy)-7-(8-ethyl-7-fluoro-3-hydroxynaphthalen-1-yl)-6,8-difluoroquinazolin-4-yl)-6-methyl-1,4-oxazepan-6-ol], the inhibition at 0.1 µM amounted to 47% in assay [1], 51% in assay [5], 86% in assay [6] and 87% in assay [4].
On the same counts, the results for `CCc1c(F)ccc2cc(O)cc(C3Cc4nc(OC[C@@]56CCCN5C[C@H](F)C6)nc(N5CCC[C@@](C)(O)C5)c4CO3)c12` (stereo partly drawn) [Example 85, (3R)-1-(7-(8-ethyl-7-fluoro-3-hydroxynaphthalen-1-yl)-2-(((2R,7aS)-2-fluorotetrahydro-1H-pyrrolizin-7a(5H)-yl)methoxy)-7,8-dihydro-5H-pyrano[4,3-d]pyrimidin-4-yl)-3-methylpiperidin-3-ol] are 21%, -12%, 16% and -7%.
On the same counts, the results for `O=S1(=O)NCC2(CCCN(c3nc(OC[C@@]45CCCN4C[C@H](F)C5)nc4c(F)c(-c5cc(O)cc6ccc(F)c(Cl)c56)ccc34)C2)N1` (stereo partly drawn) [Example 72, 7-(7-(8-chloro-7-fluoro-3-hydroxynaphthalen-1-yl)-8-fluoro-2-(((2R,7aS)-2-fluorohexahydro-1H-pyrrolizin-7a-yl)methoxy)quinazolin-4-yl)-2-thia-1,3,7-triazaspiro[4.5]decane 2,2-dioxide] are 76%, 69%, 87% and 98%.

For the origin of these results see US20240025907A1, “QUINAZOLINE PAN-KRas INHIBITORS” (Mirati Therapeutics, Inc., priority 2022, published 2024).
